Data reported in patent US4670457A, “2H-benzofuran-3-one-derivatives and process for their preparation” (Farmitalia Carlo Erba, S.p.A., priority 1978, dated 1987).

assay: Seven days indicative acute toxicity after oral administration; settings: mouse, in vivo, mice
Description: The tested compounds were administered per os (p.o.) 15 minutes before the administration of the antigen: at least 6 rats were used for each dose. Seven days indicative acute toxicity after oral administration was assessed for the compounds of the invention, for example, a LD50 >800 mg/kg in mice was obtained for all the following compounds of the invention: […]

| SMILES | LD50 at 168 h |
| --- | --- |
| COc1ccc(OC(C)C)c(C=C2Oc3ccc(C(=O)O)cc3C2=O)c1 [K 13432, 5-carboxy-2-(2'-isopropoxy-5'-methoxy-benzylidene)-2H-benzofuran-3-one] | > 800 mg/kg |
| CC(C)Oc1cccc(C=C2Oc3ccc(C(=O)O)cc3C2=O)c1 [5-carboxy-2-(3'-isopropoxy-benzylidene)-2H-benzofuran-3-one] | > 800 mg/kg |
| COc1ccc(C=C2Oc3ccc(C(=O)O)cc3C2=O)cc1OC [5-carboxy-2-(3',4'-dimethoxy-benzylidene)-2H-benzofuran-3-one] | > 800 mg/kg |
| O=C(O)c1ccc2c(c1)C(=O)C(=Cc1cccs1)O2 [5-carboxy-2-(2'-thenylidene)-2H-benzofuran-3-one] | > 800 mg/kg |
| COc1cccc(C=C2Oc3ccc(C(=O)O)cc3C2=O)c1 [5-carboxy-2-(3'-methoxy-benzylidene)-2H-benzofuran-3-one] | > 800 mg/kg |
| COc1cc(C=C2Oc3ccc(C(=O)O)cc3C2=O)cc(OC)c1OC [K 13364, 5-carboxy-2-(3',4',5'-trimethoxy-benzylidene)-2H-benzofuran-3-one] | > 800 mg/kg |
| CC(C)Oc1ccccc1C=C1Oc2ccc(C(=O)O)cc2C1=O [5-carboxy-2-(2'-isopropoxy-benzylidene)-2H-benzofuran-3-one] | > 800 mg/kg |
| COc1ccc(C=C2Oc3ccc(C(=O)O)cc3C2=O)c(OC)c1OC [K 13422, 5-carboxy-2-(2',3',4'-trimethoxy-benzylidene)-2H-benzofuran-3-one] | > 800 mg/kg |
| COc1ccc(OC)c(C=C2Oc3ccc(C(=O)O)cc3C2=O)c1 [K 13383, 5-carboxy-2-(2',5'-dimethoxy-benzylidene)-2H-benzofuran-3-one] | > 800 mg/kg |
| COc1ccccc1C=C1Oc2ccc(C(=O)O)cc2C1=O [5-carboxy-2-(2'-methoxy-benzylidene)-2H-benzofuran-3-one] | > 800 mg/kg |
| COc1ccc(C=C2Oc3ccc(C(=O)O)cc3C2=O)cc1 [5-carboxy-2-(4'-methoxy-benzylidene)-2H-benzofuran-3-one] | > 800 mg/kg |
